# Key:
# Format in all cases: cell-based
# SNB-19 = assay: Cell viability panel, CyQUANT Direct; conditions: Homo sapiens, CNS, 48 hours, read-out: Compound EC50
# Protocol: (§1) Cell viability panel studies. Cells were diluted in the corresponding ATCC recommended medium and dispensed in a 384-well plate, depending on the cell line used, at a density of 200-6400 cells per well. For each used cell line, the optimal cell density was used. Compound was serially diluted and 8 concentration (0.04-32 μM) were added to the cells for 72 h exposure. At t=end, of ATPlite 1Step™ (PerkinElmer) were used to calculate cell viability. Cell lines marked with asterisk were seeded 24 h prior to treatment in 96-well plates at the density range of 5,000-40,000 cells/well, according to duplication rate, in RPMI 1640 medium containing 10% fetal bovine serum and 2 mM L-glutamine. Compounds were diluted from 10 mM DMSO stock and treatment was applied at the range of 0.04-1 μM. Following incubation at 37° C. for 48 hours with increasing concentrations of the compounds, viability was determined with CyQUANT® Direct Assay Kit (Invitrogen). Output intensities were normalized to values after treatment with DMSO alone, and EC50 values were calculated using the absorbance measurements [time zero, (Tz), growth control, (C), plus the test growth at the four drug concentration levels (Ti)] as follows: [(Ti−Tz)/(C−Tz)]×100 for concentrations for which Ti>/=Tz; [(Ti−Tz)/Tz]×100 for concentrations for which Ti−<Tz.
# LOX IMVI = assay: Cell viability panel, CyQUANT Direct; conditions: Homo sapiens, Melanoma, 48 hours, read-out: Compound EC50
# Protocol: as §1
# RXF-393 = assay: Cell viability panel, CyQUANT Direct; conditions: Homo sapiens, Renal cancer, 48 hours, read-out: Compound EC50
# Protocol: as §1
# SNB-75 = assay: Cell viability panel, CyQUANT Direct; conditions: Homo sapiens, CNS, 48 hours, read-out: Compound EC50
# Protocol: as §1
# MDA-MB-231 [1] = assay: Cell viability panel, CyQUANT Direct; conditions: Homo sapiens, Breast Cancer, 48 hours, read-out: Compound EC50
# Protocol: as §1
# U251 = assay: Cell viability panel, CyQUANT Direct; conditions: Homo sapiens, U-251, CNS, 48 hours, read-out: Compound EC50
# Protocol: as §1
# OVCAR-8 = assay: Cell viability panel, CyQUANT Direct; conditions: Homo sapiens, Ovarian Cancer, 48 hours, read-out: Compound EC50
# Protocol: as §1
# UO-31 = assay: Cell viability panel, CyQUANT Direct; conditions: Homo sapiens, Renal cancer, 48 hours, read-out: Compound EC50
# Protocol: as §1
# OVCAR-4 = assay: Cell viability panel, CyQUANT Direct; conditions: Homo sapiens, Ovarian Cancer, 48 hours, read-out: Compound EC50
# Protocol: as §1
# SK-MEL-5 [2] = assay: Cell viability panel, CyQUANT Direct; conditions: Homo sapiens, Melanoma, 48 hours, read-out: Compound EC50
# Protocol: as §1
# NCI-H522 = assay: Cell viability panel, CyQUANT Direct; conditions: Homo sapiens, Lung Cancer, 48 hours, read-out: Compound EC50
# Protocol: as §1
# SK-MEL-28 = assay: Cell viability panel, CyQUANT Direct; conditions: Homo sapiens, Melanoma, 48 hours, read-out: Compound EC50
# Protocol: as §1
# [3] = system: UPR branches (PERK, ATF6 and IRE1alpha); assay: UPR activation in MM1.S cells (immunoblot, RT-PCR); conditions: 200 nM
# Protocol: MM1.S cells were treated with 200 nM of Compound B1 for the indicated time points. Following the stated incubation periods the cells were harvested, lysed and resolved on SDS-PAGE gel. Proteins were transferred to PVDF membrane and immunoblotted with the indicated antibodies: FIG. 7A: anti phospho JNK, FIG. 7B: anti JNK, FIG. 7C: anti ATF6. FIG. 7D: anti phospho eIF2alpha, FIG. 7E: anti eIF2alpha, FIG. 7F: anti ATF4. XBP1 splicing was performed on cDNA (FIG. 7G), RNA was extracted cDNA was generated by RT-PCR and XPB1 transcript was amplified by PCR with gene specific primers. Splicing was detected by differential migration of XBP1 transcript on agarose gel. Transcriptional changes of CHOP (FIG. 7K) and ATF4 (FIG. 7J) were estimated by quantitative PCR with gene specific primers. Relative gene expression levels were normalized to GAPDH. Cleaved form of ATF6 and spliced XBP1 is indicated with arrow.
# Protein analysis by Western blot. At the end of treatment period, the cells were lysed with M-PER mammalian protein extraction reagent (ThermoFisher Scientific) supplemented with protease inhibitors. Equal protein amounts were resolved on pre-cast SDS-PAGE (ThermoFisher Scientific) and transferred to a PVDF membrane. The membrane was immunoblotted with antibodies as indicated. The following antibodies were used: Ub MAb (SC-8017, Santa-Cruz), ATF4, ATF6, phospho JNK, JNK (Cell signaling); eIF2alpha, phospho eIF2alpha (Novus).
# RT-PCR: MM cells were treated with compounds as indicated. Total RNA was extracted using RNAeasy kit (QIAGEN) and cDNA was synthesized using reverse transcriptase (Quantaces biosciences). mRNA levels of ATF4 and CHOP were determined by quantitative PCR using a StepOnePlus™ Real Time PCR system (Life Technologies) with gene specific assays (Thermo Scientific). XBP splicing were addressed by differential migration of XBP-1 gene transcript full size versus spliced form on 2% Agarose gel.
# MCF-7 = assay: NCI60 screen cytotoxicity; conditions: Homo sapiens, MCF7, Breast cancer, read-out: Compound B1 EC50
# HL-60 = assay: NCI60 screen cytotoxicity; conditions: Homo sapiens, Leukemia, read-out: Compound B1 EC50
# MDA-MB-435 = assay: NCI60 screen cytotoxicity; conditions: Homo sapiens, Melanoma, read-out: Compound B1 EC50
# MDA-MB-231 [4] = assay: NCI60 screen cytotoxicity; conditions: Homo sapiens, Breast cancer, read-out: Compound B1 EC50
# OVCAR-5 = assay: NCI60 screen cytotoxicity; conditions: Homo sapiens, Ovarian cancer, read-out: Compound B1 EC50
# HS-578T = assay: NCI60 screen cytotoxicity; conditions: Homo sapiens, Breast cancer, read-out: Compound B1 EC50
# M14 = assay: NCI60 screen cytotoxicity; conditions: Homo sapiens, Melanoma, read-out: Compound B1 EC50
# CCRF-CEM = assay: NCI60 screen cytotoxicity; conditions: Homo sapiens, Leukemia, read-out: Compound B1 EC50
# HCT-116 = assay: NCI60 screen cytotoxicity; conditions: Homo sapiens, Colon cancer, read-out: Compound B1 EC50
# SK-MEL-5 [5] = assay: NCI60 screen cytotoxicity; conditions: Homo sapiens, Melanoma, read-out: Compound B1 EC50
smiles,measurement,setting,value
CN(C)CCCS(=O)(=O)N1C/C(=C\c2ccc(C#N)cc2)C(=O)/C(=C/c2ccc(C#N)cc2)C1 [Compound AA],EC50,SNB-19,< 300 nM
same,EC50,LOX IMVI,< 300 nM
same,EC50,RXF-393,≥ 1000 nM
same,EC50,SNB-75,300 to 1000 nM
same,EC50,MDA-MB-231 [1],< 300 nM
same,EC50,U251,< 300 nM
same,EC50,OVCAR-8,< 300 nM
same,EC50,UO-31,300 to 1000 nM
same,EC50,OVCAR-4,300 to 1000 nM
same,EC50,SK-MEL-5 [2],< 300 nM
same,EC50,NCI-H522,< 300 nM
same,EC50,SK-MEL-28,< 300 nM
CN(C)CC(=O)NCC(=O)N1C/C(=C\c2ccc(C#N)cc2)C(=O)/C(=C/c2ccc(C#N)cc2)C1 [Compound B1],eIF2alpha phosphorylation (PERK activation),[3]; after 1 hr of treatment,increases eI2Falpha phosphorylation
same,XBP splicing,[3]; differential migration of XBP gene transcript,Spliced XBP was detected
same,ATF6 full size form,[3]; immunoblot,short term upregulation of ATF6 full size form followed by a rapid decline
same,phosphorylated JNK,"[3]; immunoblot, no change in total protein levels",significant upregulation in phosphorylated JNK
same,ATF4 and CHOP transcription (quantitative PCR),[3]; peaking at 3 hr post treatment,transcriptional increase of both ATF4 and CHOP
same,EC50,MCF-7,300 to 1000 nM
same,EC50,HL-60,< 300 nM
same,EC50,MDA-MB-435,< 300 nM
same,EC50,MDA-MB-231 [4],< 300 nM
same,EC50,OVCAR-5,< 300 nM
same,EC50,HS-578T,300 to 1000 nM
same,EC50,M14,< 300 nM
same,EC50,CCRF-CEM,< 300 nM
same,EC50,HCT-116,< 300 nM
same,EC50,SK-MEL-5 [5],300 to 1000 nM

# From US20200399262A1, “COMPOUNDS FOR INHIBITING PROTEIN DEGRADATION AND METHODS OF USE THEREOF IN THE TREATMENT OF CANCER” (PI Therapeutics Ltd, priority 2018, published 2020)
